# Data reported in paper PMC9715518, “Human and rat microsomal metabolites of N-tert-butoxycarbonylmethamphetamine and its urinary metabolites in rat” (Forensic Toxicology, 2021).
# Key:
# [1] = Microsomal metabolism test, human liver microsomes; conditions: for Detection after incubation of BocMA (LC–QToF–MS): HLM incubation of BocMA; for Share of the degraded products detected as this metabolite: HLM, first 8 min
# [2] = Rat administration test, urinary excretion; conditions: for M1–D1 absolute amount in urine after hydrolysis / M1–D1 concentration in urine after hydrolysis / M1–D1 concentration in urine before hydrolysis / M1–D2 absolute amount in urine after hydrolysis / M1–D2 concentration in urine after hydrolysis / M1–D2 concentration in urine before hydrolysis / Detection in rat urine (LC–QToF–MS): BocMA 20 mg/kg i.p.; for Detection in rat urine (LC–QToF–MS): urine 0–72 h, n = 3
# [3] = Microsomal metabolism test, rat liver microsomes; conditions: for Detection after incubation of BocMA (LC–QToF–MS): RLM incubation of BocMA; for Share of the degraded products detected as this metabolite: RLM, first 3 min; for Incubation time at which peak intensity was highest: RLM test
# [4] = within 3–4 days; cited from earlier work
compound,measurement,setting,value
"CC(C(O)c1ccccc1)N(C)C(=O)OC(C)(C)C (single isomer, unassigned) [M1–D1, N-tert-butoxycarbonylephedrine]",Detection after incubation of BocMA (LC–QToF–MS),[1],produced
same,Share of the degraded products detected as this metabolite,[1],10%
same,M1–D1 absolute amount in urine after hydrolysis,"[2]; rat no. 1, urine 0–4 h",0.69 ng
same,M1–D1 concentration in urine after hydrolysis,"[2]; rat no. 1, urine 0–4 h",0.46 ng/mL
same,M1–D1 concentration in urine before hydrolysis,"[2]; rat no. 1, urine 0–4 h",0.47 ng/mL
same,M1–D1 absolute amount in urine after hydrolysis,"[2]; rat no. 1, urine 0–72 h total",57 ng
same,M1–D1 absolute amount in urine after hydrolysis,"[2]; rat no. 1, urine 4–8 h",54 ng
same,M1–D1 concentration in urine after hydrolysis,"[2]; rat no. 1, urine 4–8 h",54 ng/mL
same,M1–D1 concentration in urine before hydrolysis,"[2]; rat no. 1, urine 4–8 h",0.51 ng/mL
same,M1–D1 absolute amount in urine after hydrolysis,"[2]; rat no. 2, urine 0–4 h",10 ng
same,M1–D1 concentration in urine after hydrolysis,"[2]; rat no. 2, urine 0–4 h",5.2 ng/mL
same,M1–D1 concentration in urine before hydrolysis,"[2]; rat no. 2, urine 0–4 h",6.5 ng/mL
same,M1–D1 absolute amount in urine after hydrolysis,"[2]; rat no. 2, urine 0–72 h total",260 ng
same,M1–D1 absolute amount in urine after hydrolysis,"[2]; rat no. 2, urine 4–8 h",180 ng
same,M1–D1 concentration in urine after hydrolysis,"[2]; rat no. 2, urine 4–8 h",89 ng/mL
same,M1–D1 concentration in urine before hydrolysis,"[2]; rat no. 2, urine 4–8 h",3.0 ng/mL
same,M1–D1 absolute amount in urine after hydrolysis,"[2]; rat no. 2, urine 8–24 h",72 ng
same,M1–D1 concentration in urine after hydrolysis,"[2]; rat no. 2, urine 8–24 h",4.8 ng/mL
same,M1–D1 concentration in urine before hydrolysis,"[2]; rat no. 2, urine 8–24 h",3.0 ng/mL
same,M1–D1 absolute amount in urine after hydrolysis,"[2]; rat no. 3, urine 0–4 h",70 ng
same,M1–D1 concentration in urine after hydrolysis,"[2]; rat no. 3, urine 0–4 h",140 ng/mL
same,M1–D1 concentration in urine before hydrolysis,"[2]; rat no. 3, urine 0–4 h",50 ng/mL
same,M1–D1 absolute amount in urine after hydrolysis,"[2]; rat no. 3, urine 0–72 h total",1500 ng
same,M1–D1 absolute amount in urine after hydrolysis,"[2]; rat no. 3, urine 4–8 h",440 ng
same,M1–D1 concentration in urine after hydrolysis,"[2]; rat no. 3, urine 4–8 h",220 ng/mL
same,M1–D1 concentration in urine before hydrolysis,"[2]; rat no. 3, urine 4–8 h",3.2 ng/mL
same,M1–D1 absolute amount in urine after hydrolysis,"[2]; rat no. 3, urine 8–24 h",860 ng
same,M1–D1 concentration in urine after hydrolysis,"[2]; rat no. 3, urine 8–24 h",86 ng/mL
same,M1–D1 absolute amount in urine after hydrolysis,"[2]; rat no. 3, urine 24–48 h",88 ng
same,M1–D1 concentration in urine after hydrolysis,"[2]; rat no. 3, urine 24–48 h",11 ng/mL
same,M1–D1 absolute amount in urine after hydrolysis,"[2]; rat no. 3, urine 48–72 h",6.4 ng
same,M1–D1 concentration in urine after hydrolysis,"[2]; rat no. 3, urine 48–72 h",0.71 ng/mL
same,Detection after incubation of BocMA (LC–QToF–MS),[3],detected
same,Share of the degraded products detected as this metabolite,[3],5%
"CC(C(O)c1ccccc1)N(C)C(=O)OC(C)(C)C (single isomer, unassigned) [M1–D2, N-tert-butoxycarbonylpseudoephedrine]",Detection after incubation of BocMA (LC–QToF–MS),[1],produced
same,Share of the degraded products detected as this metabolite,[1],4%
same,M1–D2 absolute amount in urine after hydrolysis,"[2]; average of 3 rats, urine 0–72 h total",85 ng
same,M1–D2 absolute amount in urine after hydrolysis,"[2]; rat no. 1, urine 0–4 h",7.8 ng
same,M1–D2 concentration in urine after hydrolysis,"[2]; rat no. 1, urine 0–4 h",5.2 ng/mL
same,M1–D2 concentration in urine before hydrolysis,"[2]; rat no. 1, urine 0–4 h",1.5 ng/mL
same,M1–D2 absolute amount in urine after hydrolysis,"[2]; rat no. 1, urine 0–72 h total",43 ng
same,M1–D2 absolute amount in urine after hydrolysis,"[2]; rat no. 1, urine 4–8 h",35 ng
same,M1–D2 concentration in urine after hydrolysis,"[2]; rat no. 1, urine 4–8 h",35 ng/mL
same,M1–D2 concentration in urine before hydrolysis,"[2]; rat no. 1, urine 4–8 h",0.67 ng/mL
same,M1–D2 absolute amount in urine after hydrolysis,"[2]; rat no. 2, urine 0–4 h",24 ng
same,M1–D2 concentration in urine after hydrolysis,"[2]; rat no. 2, urine 0–4 h",12 ng/mL
same,M1–D2 concentration in urine before hydrolysis,"[2]; rat no. 2, urine 0–4 h",12 ng/mL
same,M1–D2 absolute amount in urine after hydrolysis,"[2]; rat no. 2, urine 0–72 h total",52 ng
same,M1–D2 absolute amount in urine after hydrolysis,"[2]; rat no. 2, urine 4–8 h",28 ng
same,M1–D2 concentration in urine after hydrolysis,"[2]; rat no. 2, urine 4–8 h",14 ng/mL
same,M1–D2 concentration in urine before hydrolysis,"[2]; rat no. 2, urine 4–8 h",1.0 ng/mL
same,M1–D2 absolute amount in urine after hydrolysis,"[2]; rat no. 3, urine 0–4 h",50 ng
same,M1–D2 concentration in urine after hydrolysis,"[2]; rat no. 3, urine 0–4 h",100 ng/mL
same,M1–D2 concentration in urine before hydrolysis,"[2]; rat no. 3, urine 0–4 h",8.1 ng/mL
same,M1–D2 absolute amount in urine after hydrolysis,"[2]; rat no. 3, urine 0–72 h total",160 ng
same,M1–D2 absolute amount in urine after hydrolysis,"[2]; rat no. 3, urine 4–8 h",66 ng
same,M1–D2 concentration in urine after hydrolysis,"[2]; rat no. 3, urine 4–8 h",33 ng/mL
same,M1–D2 concentration in urine before hydrolysis,"[2]; rat no. 3, urine 4–8 h",1.5 ng/mL
same,M1–D2 absolute amount in urine after hydrolysis,"[2]; rat no. 3, urine 8–24 h",42 ng
same,M1–D2 concentration in urine after hydrolysis,"[2]; rat no. 3, urine 8–24 h",4.2 ng/mL
same,Detection after incubation of BocMA (LC–QToF–MS),[3],detected
same,Share of the degraded products detected as this metabolite,[3],40%
"CC(N)Cc1ccc(O)cc1 (centres unmarked) [4OHAP, 4-hydroxy amphetamine, reference compound]",Detection after incubation of BocMA (LC–QToF–MS),[1],not detected
same,Detection in rat urine (LC–QToF–MS),[2],not detected
same,Detection after incubation of BocMA (LC–QToF–MS),[3],not detected
"CNC(C)Cc1ccc(O)cc1 (centres unmarked) [4OHMA, 4-hydroxy methamphetamine, reference compound]",Detection after incubation of BocMA (LC–QToF–MS),[1],not detected
same,Detection in rat urine (LC–QToF–MS),[2],not detected
same,Detection after incubation of BocMA (LC–QToF–MS),[3],not detected
"CC(N)Cc1ccccc1 (centres unmarked) [AP, amphetamine]",Detection in rat urine (LC–QToF–MS),[2],not detected
same,Detection after incubation of BocMA (LC–QToF–MS),[3],not detected
CC(NC(=O)OC(C)(C)C)C(O)c1ccccc1 (centres unmarked) [Boc-protected nor-ephedrine],Detection after incubation of BocMA (LC–QToF–MS),[1],not detected
same,Detection after incubation of BocMA (LC–QToF–MS),[3],not detected
"CC(C(=O)c1ccccc1)N(C)C(=O)OC(C)(C)C (centres unmarked) [BocMC, N-tert-butoxycarbonyl-2-(methylamino)-1-phenylpropan-1-one, reference compound]",Detection after incubation of BocMA (LC–QToF–MS),[1],not detected
same,Detection after incubation of BocMA (LC–QToF–MS),[3],not detected
CC(C(O)c1ccccc1)N(C)C(=O)OC(C)(C)C (centres unmarked) [M1],Share of the degraded products detected as this metabolite,[1],14%
same,M1 diastereomer ratio (R = M1–D1/M1–D2),"[2]; in vivo, rat urine",≥ 1
same,Detection in rat urine (LC–QToF–MS),[2],detected in urine from all rats
same,Incubation time at which peak intensity was highest,[3],3 min
same,Share of the degraded products detected as this metabolite,[3],45%
same,Share of the degraded products detected as this metabolite,"[3]; listed as M1 (D1, 2)",~45%
"CC(Cc1ccccc1)NC(=O)OC(C)(C)C (centres unmarked) [M2, N-tert-butoxycarbonylamphetamine]",Detection after incubation of BocMA (LC–QToF–MS),[1],produced
same,Detection in rat urine (LC–QToF–MS),[2],not detected
"C[C@@H](Cc1ccc(O)cc1)N(C)C(=O)OC(C)(C)C [M3, N-tert-butoxycarbonyl-4-hydroxymethamphetamine]",Detection after incubation of BocMA (LC–QToF–MS),[1],produced
same,Detection in rat urine (LC–QToF–MS),[2],trace amount of M3 was detected only in the urine collected during 0–4 h from Rat No. 3
"CC(NC(=O)OC(C)(C)C)C(=O)c1ccccc1 (centres unmarked) [M4, N-tert-butoxycarbonyl-2-amino-1-phenylpropan-1-one]",Detection after incubation of BocMA (LC–QToF–MS),[1],produced
same,Detection in rat urine (LC–QToF–MS),[2],not detected
same,Detection after incubation of BocMA (LC–QToF–MS),[3],detected
same,Incubation time at which peak intensity was highest,[3],20 min
C[C@H](NC(=O)OC(C)(C)CO)C(=O)c1ccccc1 [M5],Detection after incubation of BocMA (LC–QToF–MS),[1],produced
same,Urine collection interval with the highest ion peak intensity,[2]; rat urine,4 to 8 h
same,Increase of peak intensity after hydrolysis,"[2]; rat urine, β-glucuronidase hydrolysis",approximately tenfold
same,Detection in rat urine (LC–QToF–MS),[2],detected in urine from all rats
same,Detection after incubation of BocMA (LC–QToF–MS),[3],detected
same,Incubation time at which peak intensity was highest,[3],60 min
CC1N(C)C(O)(OC(C)(C)C)OC1(O)c1ccccc1 (centres unmarked) [M6],Detection after incubation of BocMA (LC–QToF–MS),[1],produced
same,Detection in rat urine (LC–QToF–MS),[2],not detected
same,Detection after incubation of BocMA (LC–QToF–MS),[3],detected
same,Incubation time at which peak intensity was highest,[3],13 min
CC(NC(=O)OC(C)(C)COC1OC(C(=O)O)C(O)C(O)C1O)C(=O)c1ccccc1 (centres unmarked) [M9],Urine collection interval with the highest ion peak intensity,[2]; rat urine,4 to 8 h
same,Detection in rat urine (LC–QToF–MS),[2],detected in all rat urine collected until 72 h
"CN[C@@H](C)Cc1ccccc1 [MA, Methamphetamine]",Detection after incubation of BocMA (LC–QToF–MS),[1],not detected
same,Detection in rat urine (LC–QToF–MS),[2],not detected
same,Detection after incubation of BocMA (LC–QToF–MS),[3],not detected
same,Share of the administered amount excreted in urine,[4],about 80%
